Reference: patent publication US12668600B2 (Kumquat Biosciences Inc., priority 2023, dated 2026)

Experiments:
Format in all cases: biochemical
[1] = molecular target: T1, KRAS G12D (Homo sapiens, UniProt P01116, G12D); experiment: HTRF KRAS-SOS1 interaction assay, KRAS G12D; conditions: binned ≤2 μM / >2 μM, read-out: Inhibition of KRAS G12D (IC50)
T1 construct: made in house; host or cells: E. coli, e.g. BL21 (DE3)
How it was run: (§1)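 GST-tagged KRAS (WT or mutant) with anti-GST-Eu donor and His-hSOS1 with anti-6His-XL665 acceptor were combined in 5 mM HEPES pH 7.4, 150 mM NaCl, 1 mM DTT, 0.05% BSA, 0.0025% Igepal. After ~10 min, HTRF was read (ex 337, em 620/665 nm); IC50 from 665/620 ratio.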

[2] = molecular target: T2, KRAS G12S (Homo sapiens, UniProt P01116, G12S); experiment: HTRF KRAS-SOS1 interaction assay, KRAS G12S; conditions: binned ≤2 μM / >2 μM, read-out: Inhibition of KRAS G12S (IC50)
T2 construct: made in house; host or cells: E. coli, e.g. BL21 (DE3)
T2 sequence (P01116 1-188 isoform P01116-2 G12S): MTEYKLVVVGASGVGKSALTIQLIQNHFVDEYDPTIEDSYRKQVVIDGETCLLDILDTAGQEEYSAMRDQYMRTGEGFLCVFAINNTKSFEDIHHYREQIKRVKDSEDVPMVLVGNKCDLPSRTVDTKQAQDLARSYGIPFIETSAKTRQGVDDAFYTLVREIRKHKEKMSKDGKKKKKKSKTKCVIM
How it was run: as §1

[3] = molecular target: T3, KRAS G12V (Homo sapiens, UniProt P01116, G12V); experiment: HTRF KRAS-SOS1 interaction assay, KRAS G12V; conditions: binned ≤2 μM / >2 μM, read-out: Inhibition of KRAS G12V (IC50)
T3 construct: made in house; host or cells: E. coli, e.g. BL21 (DE3)
T3 sequence (P01116 1-188 isoform P01116-2 G12V): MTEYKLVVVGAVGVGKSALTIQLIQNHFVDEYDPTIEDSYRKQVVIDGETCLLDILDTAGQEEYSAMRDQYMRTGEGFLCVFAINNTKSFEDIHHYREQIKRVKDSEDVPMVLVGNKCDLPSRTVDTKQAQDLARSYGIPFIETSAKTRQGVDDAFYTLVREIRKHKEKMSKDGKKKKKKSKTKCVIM
How it was run: as §1

[4] = molecular target: T4, KRAS WT (Homo sapiens, UniProt P01116); experiment: HTRF KRAS-SOS1 interaction assay, wildtype KRAS; conditions: binned ≤2 μM / >2 μM, read-out: Inhibition of KRAS WT (IC50)
T4 construct: made in house; host or cells: E. coli, e.g. BL21 (DE3)
T4 sequence (P01116 1-188 isoform P01116-2): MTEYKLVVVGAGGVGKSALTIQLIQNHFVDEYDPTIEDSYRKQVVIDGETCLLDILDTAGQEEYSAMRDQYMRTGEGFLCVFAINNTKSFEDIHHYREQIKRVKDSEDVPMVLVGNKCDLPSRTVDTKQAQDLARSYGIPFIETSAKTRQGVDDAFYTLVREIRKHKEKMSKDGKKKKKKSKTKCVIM
How it was run: as §1

T1 sequence (P01116 1-188 isoform P01116-2 G12D): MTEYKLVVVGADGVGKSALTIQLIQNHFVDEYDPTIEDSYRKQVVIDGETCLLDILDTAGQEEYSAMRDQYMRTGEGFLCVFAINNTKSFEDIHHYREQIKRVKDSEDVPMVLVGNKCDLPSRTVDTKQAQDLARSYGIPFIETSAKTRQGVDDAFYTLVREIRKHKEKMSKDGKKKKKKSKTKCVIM

SMILES	IC50 [1] [nM]	IC50 [2] [nM]	IC50 [3] [nM]	IC50 [4] [nM]
CN(C)CCC[C@H](c1cccnc1N)N1CCOc2c(C(F)(F)F)c(-c3ccc(F)c4sc(N)c(C#N)c34)c(F)c3nc(OC[C@@]45CCCN4C[C@H](F)C5)nc1c23 (single isomer, unassigned) [Compound 705]	≤ 2000	≤ 2000	≤ 2000	≤ 2000
CC(Oc1nc2c3c(c(Cl)c(-c4ccc(F)c5sc(N)c(C#N)c45)c(F)c3n1)OCCN2[C@H](C)c1cccnc1N)[C@@H]1CC(F)(F)CN1C (single isomer, unassigned) [Compound 659]	> 2000	> 2000	> 2000	> 2000
C=CC(F)(F)[C@H](c1cccnc1N)N1CCOc2c(Cl)c(-c3ccc(F)c4sc(N)c(C#N)c34)c(F)c3nc(OC[C@@]45CCCN4C[C@H](F)C5)nc1c23 [Compound 639, 2-amino-4-(4-((S)-1-(2-aminopyridin-3-yl)-2,2-difluorobut-3-en-1-yl)-8-chloro-10-fluoro-2-(((2R,7aS)-2-fluorotetrahydro-1H-pyrrolizin-7a(5H)-yl)methoxy)-5,6-dihydro-4H-[1,4]oxazepino[5,6,7-de]quinazolin-9-yl)-7-fluorobenzo[b]thiophene-3-carbonitrile]	≤ 2000	≤ 2000	≤ 2000	≤ 2000
CC[C@H](c1cc(F)cnc1N)N1CCOc2c(C(F)(F)F)c(-c3ccc(F)c4sc(N)c(C#N)c34)c(F)c3nc(OC[C@@]45CCCN4C[C@H](F)C5)nc1c23 [Compound 870, 2-amino-4-(4-((R)-1-(2-amino-5-fluoropyridin-3-yl)propyl)-10-fluoro-2-(((2R,7aS)-2-fluorotetrahydro-1H-pyrrolizin-7a(5H)-yl)methoxy)-8-(trifluoromethyl)-5,6-dihydro-4H-[1,4]oxazepino[5,6,7-de]quinazolin-9-yl)-7-fluorobenzo[b]thiophene-3-carbonitrile]	≤ 2000	≤ 2000	≤ 2000	≤ 2000
C[C@@H]1COCCN1CC1(COc2nc3c4c(c(C(F)(F)F)c(-c5ccc(F)c6sc(N)c(C#N)c56)c(F)c4n2)OCCN3[C@H](C)c2cccnc2N)CC1 (single isomer, unassigned) [Compound 608]	≤ 2000	≤ 2000	≤ 2000	≤ 2000
C[C@H](c1cncnc1N)N1CCOc2c(C(F)(F)F)c(-c3ccc(F)c4sc(N)c(C#N)c34)c(F)c3nc(OCC4(CN5CCC(=CF)CC5)CC4)nc1c23 [Compound 916, 2-amino-4-(4-((R)-1-(4-aminopyrimidin-5-yl)ethyl)-10-fluoro-2-((1-((4-(fluoromethylene)piperidin-1-yl)methyl)cyclopropyl)methoxy)-8-(trifluoromethyl)-5,6-dihydro-4H-[1,4]oxazepino[5,6,7-de]quinazolin-9-yl)-7-fluorobenzo[b]thiophene-3-carbonitrile]	≤ 2000	≤ 2000	≤ 2000	≤ 2000
C=CCC(c1cccnc1N)N1CCOc2c(Cl)c(-c3ccc(F)c4sc(N)c(C#N)c34)c(F)c3nc(OC[C@@]45CCCN4C[C@H](F)C5)nc1c23 (mixture of isomers) [Compound 623, 2-amino-4-((9R)-4-(1-(2-aminopyridin-3-yl)but-3-en-1-yl)-8-chloro-10-fluoro-2-(((2R,7aS)-2-fluorotetrahydro-1H-pyrrolizin-7a (5H)-yl)methoxy)-5,6-dihydro-4H-[1,4]oxazepino[5,6,7-de]quinazolin-9-yl)-7-fluorobenzo[b]thiophene-3-carbonitrile]	≤ 2000	≤ 2000	≤ 2000	≤ 2000
C[C@H](c1cc(Cl)cnc1N)N1CCOc2c(C(F)(F)F)c(-c3ccc(F)c4sc(N)c(C#N)c34)c(F)c3nc(OC[C@@]45CCCN4C[C@H](F)C5)nc1c23 (single isomer, unassigned) [Compound 766]	≤ 2000	≤ 2000	≤ 2000	≤ 2000
C[C@H](c1ccc(CN)nc1N)N1CCOc2c(Cl)c(-c3ccc(F)c4sc(N)c(C#N)c34)c(F)c3nc(OC[C@@]45CCCN4C[C@H](F)C5)nc1c23 [Compound 813, 2-amino-4-(4-((R)-1-(2-amino-6-(aminomethyl)pyridin-3-yl)ethyl)-8-chloro-10-fluoro-2-(((2R,7aS)-2-fluorotetrahydro-1H-pyrrolizin-7a(5H)-yl)methoxy)-5,6-dihydro-4H-[1,4]oxazepino[5,6,7-de]quinazolin-9-yl)-7-fluorobenzo[b]thiophene-3-carbonitrile]	≤ 2000	≤ 2000	≤ 2000	≤ 2000
C[C@H](c1cccnc1N)N1CCOc2c(Cl)c(-c3ccc(F)c4sc(N)c(C#N)c34)c(F)c3nc(OC[C@@H]4CCCN4C)nc1c23 (single isomer, unassigned) [Compound 641]	≤ 2000	≤ 2000	≤ 2000	≤ 2000
CCON=C1CN2CCC[C@@]2(COc2nc3c4c(c(Cl)c(-c5ccc(F)c6sc(N)c(C#N)c56)c(F)c4n2)OCCN3[C@H](C)c2cccnc2N)C1 (single isomer, unassigned) [Compound 700]	≤ 2000	≤ 2000	≤ 2000	≤ 2000
C[C@H](c1cc(C2CC2)cnc1N)N1CCOc2c(C(F)(F)F)c(-c3ccc(F)c4sc(N)c(C#N)c34)c(F)c3nc(OC[C@@]45CCCN4C[C@H](F)C5)nc1c23 [Compound 654, 2-amino-4-(4-((R)-1-(2-amino-5-cyclopropylpyridin-3-yl)ethyl)-10-fluoro-2-(((2R,7aS)-2-fluorotetrahydro-1H-pyrrolizin-7a(5H)-yl)methoxy)-8-(trifluoromethyl)-5,6-dihydro-4H-[1,4]oxazepino[5,6,7-de]quinazolin-9-yl)-7-fluorobenzo[b]thiophene-3-carbonitrile]	≤ 2000	≤ 2000	≤ 2000	≤ 2000
C[C@H](c1nccnc1N)N1CCOc2c(C(F)(F)F)c(-c3ccc(F)c4sc(N)c(C#N)c34)c(F)c3nc(OC[C@@]45CCCN4CC(=C(F)F)C5)nc1c23 [Compound 876, 2-amino-4-(4-((R)-1-(3-aminopyrazin-2-yl)ethyl)-2-(((S)-2-(difluoromethylene)tetrahydro-1H-pyrrolizin-7a(5H)-yl)methoxy)-10-fluoro-8-(trifluoromethyl)-5,6-dihydro-4H-[1,4]oxazepino[5,6,7-de]quinazolin-9-yl)-7-fluorobenzo[b]thiophene-3-carbonitrile]	≤ 2000	≤ 2000	≤ 2000	≤ 2000
C=C1CN2CCC[C@@]2(COc2nc3c4c(c(C(F)(F)F)c(-c5ccc(F)c6sc(N)c(C#N)c56)c(F)c4n2)OCCN3[C@H](C)c2cc(Cl)cnc2N)C1 [Compound 690, 2-amino-4-(4-((R)-1-(2-amino-5-chloropyridin-3-yl)ethyl)-10-fluoro-2-(((S)-2-methylenetetrahydro-1H-pyrrolizin-7a(5H)-yl)methoxy)-8-(trifluoromethyl)-5,6-dihydro-4H-[1,4]oxazepino[5,6,7-de]quinazolin-9-yl)-7-fluorobenzo[b]thiophene-3-carbonitrile]	≤ 2000	≤ 2000	≤ 2000	≤ 2000
C=C1CN2CCC[C@@]2(COc2nc3c4c(c(C(F)(F)F)c(-c5ccc(F)c6sc(N)c(C#N)c56)c(F)c4n2)OCCN3[C@H](C)c2cc(F)cnc2N)C1 [Compound 620, 2-amino-4-(4-((R)-1-(2-amino-5-fluoropyridin-3-yl)ethyl)-10-fluoro-2-(((S)-2-methylenetetrahydro-1H-pyrrolizin-7a(5H)-yl)methoxy)-8-(trifluoromethyl)-5,6-dihydro-4H-[1,4]oxazepino[5,6,7-de]quinazolin-9-yl)-7-fluorobenzo[b]thiophene-3-carbonitrile]	≤ 2000	≤ 2000	≤ 2000	≤ 2000
C[C@H](c1cccnc1N)N1CCOc2c(Cl)c(-c3ccc(F)c4sc(N)c(C#N)c34)c(F)c3nc(OC[C@@]45CCCN4CC(CP(C)(C)=O)C5)nc1c23 (mixture of isomers) [Compound 839, 2-amino-4-(4-((R)-1-(2-aminopyridin-3-yl)ethyl)-8-chloro-2-(((7aS)-2-((dimethylphosphoryl)methyl)tetrahydro-1H-pyrrolizin-7a(5H)-yl)methoxy)-10-fluoro-5,6-dihydro-4H-[1,4]oxazepino[5,6,7-de]quinazolin-9-yl)-7-fluorobenzo[b]thiophene-3-carbonitrile]	≤ 2000	≤ 2000	≤ 2000	≤ 2000
N#Cc1c(N)sc2c(F)ccc(-c3c(C(F)(F)F)c4c5c(nc(OC[C@@]67CCCN6CC(=C(F)F)C7)nc5c3F)N([C@H](CCC(F)(F)F)c3cc(F)cnc3N)CCO4)c12 [Compound 640, 2-amino-4-(4-((R)-1-(2-amino-5-fluoropyridin-3-yl)-4,4,4-trifluorobutyl)-2-(((S)-2-(difluoromethylene)tetrahydro-1H-pyrrolizin-7a(5H)-yl)methoxy)-10-fluoro-8-(trifluoromethyl)-5,6-dihydro-4H-[1,4]oxazepino[5,6,7-de]quinazolin-9-yl)-7-fluorobenzo[b]thiophene-3-carbonitrile]	≤ 2000	≤ 2000	≤ 2000	≤ 2000
